In ChEMBL document CHEMBL4610033, “(1-4)-Thiodisaccharides as anticancer agents. Part 5. Evaluation of anticancer activity and investigation of mechanism of action” (Bioorg Med Chem Lett, 2020):
Active and inactive are the calls of the source. No cut-off for these calls is given here.

How the values were obtained:
[1] = tested on: U-87MG ATCC; experiment: Inhibition of TrxR in human U87 cells at IC20 incubated for 1 hr and measured up to 4 hrs by DNTB-reagent based colorimetric assay; format: cell-based
[2] = tested on: U-87 MG; experiment: Induction of endoplasmic reticulum stress in human U87 cells assessed as EDEM expression at IC20 after 2 hrs by ELISA relative to control; format: functional, U-87MG ATCC
[3] = species: Homo sapiens; experiment: Inhibition of protein synthesis in human H7PX cells at IC20 for 14 hrs in presence of labeled methionine by fluorescence microscopic analysis; format: functional, cell-based
[4] = tested on: U-87 MG; experiment: Induction of apoptosis in human U87 cells assessed as apoptotic cells at IC20 after 4 hrs by AnnexinV-FITC/PI staining based flow cytometry analysis (reference value: 6.9%); format: functional, U-87MG ATCC
[5] = Induction of apoptosis in human H7PX cells assessed as viable cells at IC20 after 4 hrs by AnnexinV-FITC/PI staining based flow cytometry analysis (reference value: 90.4%); format: functional
[6] = Antiproliferative activity against human H7PX cells assessed as reduction in cell viability after 14 hrs by CCK8 assay; format: functional, cell-based
[7] = Induction of apoptosis in human H6PX cells assessed as increase in FASLG gene expression at IC20 after 4 hrs by RT-PCR analysis relative to untreated control; format: functional
[8] = Induction of apoptosis in human H7PX cells assessed as reduction in bcl2 gene expression at IC20 after 4 hrs by RT-PCR analysis relative to untreated control; format: functional
[9] = tested on: U-87 MG; experiment: Induction of endoplasmic reticulum stress in human U87 cells assessed as DNAJC3 expression at IC20 after 1 hr by ELISA relative to control; format: functional, U-87MG ATCC
[10] = tested on: U-87 MG; experiment: Anticlonogenic activity against human U87 cells assessed as ratio of the number of colonies to the number of cells seeded at IC20 incubated for 14 days followed by replating and measured after 2 weeks by crystal violet staining based microscopic analysis (reference value: 100%); format: functional, U-87MG ATCC
[11] = tested on: U-87 MG; experiment: Inhibition of protein synthesis in human U87 cells at IC20 for 14 hrs in presence of labeled methionine by fluorescence microscopic analysis; format: functional, cell-based; conditions: U-87MG ATCC
[12] = species: Homo sapiens; experiment: Inhibition of TrxR in human H6PX cells at IC20 incubated for 1 hr and measured up to 4 hrs by DNTB-reagent based colorimetric assay; format: cell-based
[13] = Induction of apoptosis in human H7PX cells assessed as apoptotic cells at IC20 after 4 hrs by AnnexinV-FITC/PI staining based flow cytometry analysis (reference value: 9.6%); format: functional
[14] = Induction of apoptosis in human H6PX cells assessed as apoptotic cells at IC20 after 4 hrs by AnnexinV-FITC/PI staining based flow cytometry analysis (reference value: 9.7%); format: functional
[15] = species: Homo sapiens; experiment: Inhibition of TrxR in human H6PX cells at IC20 incubated for 1 hr and measured after 4 hrs by TRFS-GREEN dye based fluorescence microscopic analysis; format: cell-based
[16] = tested on: U-87 MG; experiment: Induction of endoplasmic reticulum stress in human U87 cells assessed as DNAJC3 expression at IC20 after 2 hrs by ELISA relative to control; format: functional, U-87MG ATCC
[17] = tested on: U-87 MG; experiment: Induction of ROS generation in human U87 cells at IC20 incubated for 1 hr by CM-H2DCFDA staining based microplate reader analysis; format: functional, cell-based; conditions: U-87MG ATCC
[18] = tested on: U-87 MG; experiment: Induction of endoplasmic reticulum stress in human U87 cells assessed as GRP78 expression at IC20 after 1 hr by ELISA relative to control; format: functional, U-87MG ATCC
[19] = tested on: U-87 MG; experiment: Induction of endoplasmic reticulum stress in human U87 cells assessed as EDEM expression at IC20 after 1 hr by ELISA relative to control; format: functional, U-87MG ATCC
[20] = Induction of apoptosis in human H7PX cells assessed as increase in FASLG gene expression at IC20 after 4 hrs by RT-PCR analysis relative to untreated control; format: functional
[21] = tested on: U-87 MG; experiment: Antiproliferative activity against human U87 cells assessed as reduction in cell viability after 14 hrs by CCK8 assay; format: functional, cell-based, U-87MG ATCC
[22] = tested on: U-87 MG; experiment: Induction of endoplasmic reticulum stress in human U87 cells assessed as DDIT3 expression at IC20 after 2 hrs by ELISA relative to control; format: functional, U-87MG ATCC
[23] = Induction of apoptosis in human H6PX cells assessed as viable cells at IC20 after 4 hrs by AnnexinV-FITC/PI staining based flow cytometry analysis (reference value: 90.3%); format: functional
[24] = tested on: U-87MG ATCC; experiment: Inhibition of TrxR in human U87 cells assessed as reduction in intracellular thiol levels at IC20 after 1 hr by DNTB reagent based assay relative to control; format: cell-based; parameters: scale not given: the % may be the effect or the level left
[25] = tested on: U-87 MG; experiment: Induction of endoplasmic reticulum stress in human U87 cells assessed as PDIA4 expression at IC20 after 2 hrs by ELISA relative to control; format: functional, U-87MG ATCC
[26] = tested on: U-87 MG; experiment: Induction of endoplasmic reticulum stress in human U87 cells assessed as GRP78 expression at IC20 after 2 hrs by ELISA relative to control; format: functional, U-87MG ATCC
[27] = Anticlonogenic activity against human H7PX cells assessed as ratio of the number of colonies to the number of cells seeded at IC20 incubated for 14 days followed by replating and measured after 2 weeks by crystal violet staining based microscopic analysis (reference value: 100%); format: functional
[28] = tested on: U-87 MG; experiment: Induction of apoptosis in human U87 cells assessed as increase in FASLG gene expression at IC20 after 4 hrs by RT-PCR analysis relative to untreated control; format: functional, U-87MG ATCC
[29] = species: Homo sapiens; experiment: Inhibition of protein synthesis in human H6PX cells at IC20 for 14 hrs in presence of labeled methionine by fluorescence microscopic analysis; format: functional, cell-based
[30] = tested on: U-87 MG; experiment: Induction of apoptosis in human U87 cells assessed as reduction in bcl2 gene expression at IC20 after 4 hrs by RT-PCR analysis relative to untreated control; format: functional, U-87MG ATCC
[31] = Anticlonogenic activity against human H6PX cells assessed as ratio of the number of colonies to the number of cells seeded at IC20 incubated for 14 days followed by replating and measured after 2 weeks by crystal violet staining based microscopic analysis (reference value: 100%); format: functional
[32] = Induction of apoptosis in human H6PX cells assessed as reduction in bcl2 gene expression at IC20 after 4 hrs by RT-PCR analysis relative to untreated control; format: functional
[33] = species: Homo sapiens; experiment: Inhibition of TrxR in human […] cells assessed as reduction in intracellular thiol levels at IC20 after 1 hr by DNTB reagent based assay relative to control; format: cell-based; parameters: scale not given: the % may be the effect or the level left
[34] = tested on: U-87 MG; experiment: Induction of endoplasmic reticulum stress in human U87 cells assessed as DDIT3 expression at IC20 after 1 hr by ELISA relative to control; format: functional, U-87MG ATCC
[35] = tested on: U-87 MG; experiment: Induction of apoptosis in human U87 cells assessed as viable cells at IC20 after 4 hrs by AnnexinV-FITC/PI staining based flow cytometry analysis (reference value: 93.1%); format: functional, U-87MG ATCC
[36] = species: Homo sapiens; experiment: Inhibition of TrxR in human H7PX cells at IC20 incubated for 1 hr and measured up to 4 hrs by DNTB-reagent based colorimetric assay; format: cell-based
[37] = species: Homo sapiens; experiment: Inhibition of TrxR in human H6PX cells assessed as reduction in intracellular thiol levels at IC20 after 1 hr by DNTB reagent based assay relative to control; format: cell-based; parameters: scale not given: the % may be the effect or the level left
[38] = Drug uptake in human U87 cells after 2 hrs by microbeta liquid scintillation counting analysis; format: ADME, cell-based; conditions: u-87mg atcc
[39] = Antiproliferative activity against human H6PX cells assessed as reduction in cell viability after 14 hrs by CCK8 assay; format: functional, cell-based
[40] = tested on: U-87 MG; experiment: Induction of endoplasmic reticulum stress in human U87 cells assessed as PDIA4 expression at IC20 after 1 hr by ELISA relative to control; format: functional, U-87MG ATCC
[41] = Drug accumulation in human U87 cells after 2 hrs by microbeta liquid scintillation counting analysis; format: ADME, cell-based; conditions: u-87mg atcc
[42] = species: Homo sapiens; experiment: Inhibition of TrxR in human H7PX cells at IC20 incubated for 1 hr and measured after 4 hrs by TRFS-GREEN dye based fluorescence microscopic analysis; format: cell-based
[43] = tested on: U-87MG ATCC; experiment: Inhibition of TrxR in human U87 cells at IC20 incubated for 1 hr and measured after 4 hrs by TRFS-GREEN dye based fluorescence microscopic analysis; format: cell-based

In the case of `CC(=O)OC[C@H]1O[C@@H](S[C@@H]2CC(=O)[C@@H]3OC[C@H]2O3)[C@H](OC(C)=O)[C@@H](OC(C)=O)[C@@H]1OC(C)=O`, the inhibition [1] is reported as “Active”, the “fold change (FC)” value [2] is reported as 1.1 and the inhibition [3] is reported as “Active”. For the same compound, the Activity [4] was 62.2%, the Activity [5] was 56.7% and the IC20 [6] was 134 µM. For the same compound, the IC50 [6] was 158 µM, the “fold change (FC)” value [7] was 4.46 and the “fold change (FC)” value [8] was -0.69. For the same compound, the “fold change (FC)” value [9] was 1.07, the Activity [10] was 40% and the inhibition [11] was “Active”. The inhibition [12] was “Active”, the Activity [13] was 43.3% and the Activity [14] was 80.4%. The inhibition [15] was “Active”, the “fold change (FC)” value [16] was 2.43 and the Activity [17] was “Active”. The “fold change (FC)” value [18] was 1.81, the “fold change (FC)” value [19] was 2.39 and the “fold change (FC)” value [20] was 6.12. For the same compound, the IC20 [21] was 51.4 µM, the IC50 [21] was 65.2 µM and the “fold change (FC)” value [22] was 0.11. For the same compound, the Activity [23] was 19.6%, the Activity [24] was 11.8% and the “fold change (FC)” value [25] was 1.24. The “fold change (FC)” value [26] was 1.38, the Activity [27] was 63% and the “fold change (FC)” value [28] was 3.25. The inhibition [29] was “Active”, the “fold change (FC)” value [30] was -0.35 and the Activity [31] was 46%. The “fold change (FC)” value [32] was -0.4, the Activity [33] was 19.7% and the “fold change (FC)” value [34] was 7.01. The Activity [35] was 37.8%, the inhibition [36] was “Active” and the Activity [37] was 22.3%. The Drug uptake [38] was “Active”, the IC20 [39] was 113 µM and the IC50 [39] was 133 µM. The “fold change (FC)” value [40] was 1.9, the Drug uptake [41] was “Not Active” and the inhibition [42] was “Active”. For the same compound, the inhibition [43] was “Active”.
In the case of `O=C(O)c1ccccc1S[C@@H]1CC(=O)[C@@H]2OC[C@H]1O2`, the IC20 [6] is reported as 654 µM, the IC50 [6] is reported as 736 µM and the Activity [10] is reported as 86%. The IC20 [21] was 784 µM, the IC50 [21] was 922 µM and the Activity [27] was 98%. It also gave an Activity [31] of 75%, an IC20 [39] of 922 µM and an IC50 [39] of 955 µM.
